Measurements published in US10736911B2, “Use of a DHODH inhibitor in combination with an inhibitor of pyrimidine salvage” (The Board of Trustees of the Leland Stanford Junior …, priority 2015, dated 2020).
pEC50, pIC50, pKi: −log10 of the molar value. Like-named read-outs stand apart in the source and are kept apart here.

What was measured:
[1] = system: uridine salvage in K562 and A549 cells; assay: Uridine salvage inhibition by 5-ethynyl-uridine (5-EU) incorporation and click chemistry; format: cell-based; details: Homo sapiens
[2] = system: MV4-11 cells; assay: MV4-11 cell killing, DP with GSK983 in uridine supplemented media; format: cell-based; details: Homo sapiens, 158 nM GSK983, 20 μM uridine supplemented media
[3] = system: DENV; assay: DENV antiviral assay for combination of GSK983 and DP; format: cell-based, dengue virus serotype 2 strain 16681; details: Dengue virus
[4] = system: A549 lung cancer cell line; assay: A549 cell count, DP with GSK983 in uridine supplemented media; format: cell-based; details: Homo sapiens, 158 nM GSK983, 20 μM uridine supplemented media, 72 h, read-out: IC50(DP), A549 viable cell count
[5] = system: K562 cells; assay: K562 cell count, DP with GSK983 in uridine supplemented media; format: cell-based; details: Homo sapiens, 50 nM GSK983, 20 μM uridine supplemented media, 72 h
[6] = target: T1, recombinant human CMPK1 (Homo sapiens, UniProt P30085); assay: In vitro enzyme activity assay with recombinant human CMPK1 (ATP consumption); format: biochemical; details: GSK983 concentrations up to 10 μM
T1 sequence (P30085 1-196): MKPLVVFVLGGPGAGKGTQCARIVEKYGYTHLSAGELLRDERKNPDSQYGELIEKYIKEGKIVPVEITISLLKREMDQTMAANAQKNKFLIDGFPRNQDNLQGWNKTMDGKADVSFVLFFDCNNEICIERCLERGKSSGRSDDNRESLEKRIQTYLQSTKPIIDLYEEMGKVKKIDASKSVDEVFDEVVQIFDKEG
Description: In vitro enzyme activity assays with recombinant human CMPK1. The activity of recombinant human CMPK1 was measured in the presence of GSK983 using an ATP consumption assay. CMPK1 (10 nM) was added to a reaction buffer containing Tris (50 mM, pH 7.5), MgCl2 (2 mM), DTT (2 mM), ATP (100 μM), CMP (100 μM), and GSK983 (0-10 μM, from a DMSO stock solution). The final concentration of DMSO in all reaction mixtures was 2% (v/v). Enzyme activity assays were conducted at 37° C. The consumption of phosphoryl donor ATP was monitored using a Promega Kinase-Glo Luminescent Kinase Assay kit according to the manufacturer's instructions. We observed no effect of GSK983 on CMPK1 activity in vitro at GSK983 concentrations up to 10 μM.

[7] = system: K562 cells; assay: Annexin V-FITC/7-AAD apoptosis assay; format: cell-based, human; details: 72 h GSK983 treatment
Description: Annexin V-FITC/7-AAD apoptosis assay. K562 cells were seeded into 24-well plates at a density of 50,000 cells/mL and treated with the indicated concentration of GSK983 for 72 h. The final concentration of DMSO in each well was <0.1%. Following 72 h GSK983 treatment, cells were harvested and pelleted (399 g, 5 min). The supernatant was removed by vacuum. Cell death by apoptosis was analyzed using a BioVision Annexin V-FITC Apoptosis Kit (catalog number K101-100). A staining solution was prepared by first diluting the provided Annexin V-FITC solution in binding buffer according to the specifications of the manufacturer. 7-AAD was added from a stock solution in DMSO (0.67 mg/mL) such that the final concentration of 7-AAD in the staining solution was 2.5 μg/mL. Cell samples were resuspended in 0.5 mL of the staining solution. Samples were incubated at room temperature for 10 min in the dark and analyzed by flow cytometry using a BD Accuri C6 Flow Cytometer. FITC fluorescence was detected in FL1 and 7-AAD fluorescence was detected in FL3.

[8] = system: K562 cells; assay: GSK983 dose response, K562 cell growth (viable cells by flow cytometry); format: cell-based; details: Homo sapiens, 72 h treatment, viable cells counted by flow cytometry, read-out: IC50, inhibition of K562 cell growth
Description: GSK983 dose response and growth time course in K562 cells. To determine the dose response of K562 cells to GSK983, K562 cells were seeded into 24-well plates at a density of 50,000 cells/mL and treated with GSK983 at the indicated concentration for 72 h. Following 72 h treatment, cells were harvested and the density of viable cells was determined by flow cytometry (FSC/SSC) using a BD Accuri C6 Flow Cytometer. IC50 values were calculated by fitting a 4-parameter logistic equation to the data. […] At the indicated time points, cells were harvested and the density of viable cells was determined by flow cytometry (FSC/SSC) using a BD Accuri C6 Flow Cytometer.

[9] = system: VEEV; assay: microbe, parasite or virus in culture; format: cell-based, Venezuelan equine encephalitis virus (vaccine strain TC-83); details: Venezuelan equine encephalitis virus, A549, read-out: IC50, inhibition of VEEV replication
[10] = target: recombinant human DHODH (Homo sapiens, UniProt Q02127); assay: In vitro enzyme activity assay with recombinant human Δ29DHODH (DCPIP coupled assay); format: biochemical; details: recombinant human Δ29DHODH 10 nM, DHO 200 μM; read-out: Ki, DHODH, competitive with respect to decylubiquinone binding
recombinant human DHODH, sequence (Q02127 30-395): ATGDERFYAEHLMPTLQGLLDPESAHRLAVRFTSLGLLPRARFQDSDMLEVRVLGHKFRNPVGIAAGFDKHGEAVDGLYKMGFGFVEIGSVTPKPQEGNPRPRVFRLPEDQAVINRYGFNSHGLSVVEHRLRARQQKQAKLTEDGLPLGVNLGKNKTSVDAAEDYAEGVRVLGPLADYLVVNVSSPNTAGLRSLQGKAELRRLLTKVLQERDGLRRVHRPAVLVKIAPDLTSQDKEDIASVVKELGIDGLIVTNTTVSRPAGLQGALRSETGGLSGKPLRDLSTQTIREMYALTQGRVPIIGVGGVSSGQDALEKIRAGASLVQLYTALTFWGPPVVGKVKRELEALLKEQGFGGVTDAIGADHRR
Description: The reduction of DCPIP can be monitored by the loss of absorbance at 610 nm (ε=21,500 M−1cm-1). Kinetic constants were calculated from measurements in which Δ29DHODH (10 nM) was either titrated with different concentrations of decylubiquinone (QD, 10-60 μM) at a fixed concentration of DHO (200 μM) or titrated with different concentrations of DHO (10-60 μM) at a fixed concentration of QD (100 μM). Enzymatic assays were conducted at 25° C. in a reaction buffer containing Tris (100 mM, pH 8.0), NaCl (150 mM), DCPIP (60 μM), glycerol (10% v/v), and Triton X-100 (0.1% v/v). The Km values for Δ29DHODH (15 μM for DHO and 14 μM for QD) were in good agreement with previously reported values for both the full-size and N-terminally truncated enzyme.
For each inhibitor compound, three reactions were prepared: a control reaction containing no inhibitor and two reactions containing different inhibitor concentrations. Δ29DHODH was incubated with inhibitor compounds at room temperature for 5 min. The indicated concentration of QD and DHO (200 μM) were added to the reaction mixtures and absorbance at 610 nm was monitored using a PerkinElmer Lamda 25 UV-Vis spectrophotometer. For enzyme activity assays, inhibitor compounds were prepared as 1 mM stock solutions in DMSO. A QD stock solution (10 mM) was prepared in a buffer containing Tris (100 mM, pH 8.0) and Triton X-100 (1.0% v/v). […]

[11] = system: DENV; format: cell-based, dengue virus serotype 2 strain 16681; details: 48 nM GSK983, 20 μM uridine, UCK2 shRNA derivative
[12] = system: DENV; assay: DENV antiviral assay (DENV-Luc replication in A549 cells); format: cell-based, dengue virus serotype 2 strain 16681; details: for pIC50: Dengue virus, A549, 72 h
[13] = system: K562 cells; assay: Cell cycle analysis based on total DNA content (propidium iodide); set-up: species or system human; details: 24 h GSK983 treatment
Description: Cell cycle analysis based on total DNA content (propidium iodide). […] Cells were treated with the indicated concentration of GSK983 for 24 h. […] Following 24 treatment, cells were harvested and pelleted (300 g, 5 min). The supernatant was removed by vacuum and the cells were washed (0.5 mL 1×PBS). Cells were resuspended in 70% EtOH (1 mL, 0° C.) with mild vortexing. Cells were fixed in 70% EtOH overnight at 4° C. The following day, fixed cells were pelleted (1900 g, 5 min), washed (0.5 mL 1×PBS), and resuspended in 200 μL of a total DNA content staining solution (1×PBS with 50 μg/mL RNase A and 10 μg/mL propidium iodide). Samples were incubated for 30 min at 37° C. and analyzed by flow cytometry using a BD Accuri C6 Flow Cytometer. Propidium iodide fluorescence was detected in FL2.

[14] = system: A549 cells; assay: A549 cell viability assay accompanying the DENV assay; format: cell-based, human; details: 30 nM GSK983 and 1 mM deoxycytidine, 72 h
[15] = system: variety of unrelated viruses; details: Harvey et al. (2009); read-out: EC50, inhibition of replication of a variety of unrelated viruses in vitro; cited from earlier work
[16] = system: chronic myelogenous leukemia (CML); details: in vivo; cited from earlier work

## OCCN(CCO)c1nc(N2CCCCC2)c2nc(N(CCO)CCO)nc(N3CCCCC3)c2n1 [DP, dipyridamole]
[1]
  pIC50: 6.70
[2]
  pIC50: 6.96
[3]; A549, 48 h, read-out: EC50 of DP, DENV luciferase signal, 2 days post-infection
  pEC50: 6.87
[3]; A549, 72 h, read-out: EC50 of DP, DENV luciferase signal, 3 days post-infection
  pEC50: 6.79
[4]
  pIC50: 6.64
[5]
  pIC50: 6.96

## O=C(N[C@@H]1CCCc2c1[nH]c1ccc(Cl)cc21)c1ccccn1 [GSK983, (R)—N-(6-Chloro-2,3,4,9-tetrahydro-1H-carbazol-1-yl)picolinamide]
[6]
  Effect on in vitro CMPK1 activity: no effect
[7]
  Cell death by apoptosis: dose dependent increase in K562 cell death by apoptosis
[8]
  pIC50: 7.68
[9]
  pIC50: 7.89
[10]
  pKi: 6.39
[11]
  DENV replication in A549 UCK2 shRNA cells: inhibited viral replication in the latter cell-line
[12]; 30 nM GSK983 and 1 mM deoxycytidine, A549 cells
  Reduction in DENV replication: ~90%
[12]; A549 cells, 1 mM uridine
  Antiviral activity against DENV with uridine supplementation: completely abolished the antiviral activity
[12]; read-out: IC50, inhibition of DENV replication
  pIC50: 7.88
[12]; read-out: IC50, inhibition of DENV replication with exogenous deoxycytidine
  pIC50: 7.87
[13]
  Cell cycle effect: accumulation of K562 cells in S phase
[14]
  Effect on A549 cell growth: minimal effect
[15]
  pEC50: 7.70 to 8.30

## Cc1c(-c2ccc(-c3ccccc3F)cc2)nc2ccc(F)cc2c1C(=O)O [brequinar]
[16]
  Efficacy towards CML in mouse models: effective
